Series [1] relates to Ebolavirus. Description: Antiviral activity against VSV-G pseudotyped EBOV-GP Mayinga infected in African green monkey Vero E6 cells assessed as inhibition of viral infection preincubated with cells for 1 hr followed by viral infection and measured after 24 hrs by luciferase based luminometric analysis. Type of series: functional, organism-based. Conditions: Orthoebolavirus, Vero C1008.

In series [2] the test system is Vesicular stomatitis virus. Description: Antiviral activity against VSV-G pseudotyped virus infected in African green monkey Vero E6 cells assessed as inhibition of viral infection at 10 uM preincubated with cells for 1 hr followed by viral infection and measured after 24 hrs by luciferase based luminometric analysis. Conditions: time 25.0 hrs. Type of series: functional, organism-based.

Series [3] in a line: Cytotoxicity against African green monkey Vero E6 cells assessed as reduction in cell viability incubated for 24 hrs by CellTiter-Glo Luminescent Cell Viability Assay. Type of series: toxicity, cell-based, Vero C1008. Particulars: chlorocebus sabaeus. (In general: ATP-based viability assays read luminescence as a measure of living cells.)
In series [4] the test system is Ebolavirus. Description: Antiviral activity against replicative EBOV Mayinga infected in African green monkey Vero E6 cells assessed as reduction in virus titer in cell culture supernatant incubated for 3 days by immunofocus assay. Type of series: functional, organism-based.
Series [5] in a line: Selectivity index, ratio of CC50 for cytotoxicity against African green monkey Vero E6 cells to EC50 for antiviral activity against VSV-G pseudotyped EBOV-GP Mayinga infected in African green monkey Vero E6 cells. Particulars: read-out: Ratio CC50/EC50. Type of series: toxicity, cell-based.
Series [6] in a line: Selectivity index, ratio of CC50 for cytotoxicity against African green monkey Vero E6 cells to EC50 for antiviral activity against replicative EBOV Mayinga variant infected in African green monkey Vero E6 cells. Type of series: toxicity, cell-based. Conditions: read-out: Ratio CC50/EC50.
The subject of series [7] is Ebolavirus. Kind of series: Binding affinity to EBOV-GP assessed as appearance of STD signals of aromatic region of compound at ligand to protein concentration molar ratio of 100:1 by STD-NMR analysis.
Series [8] deals with Ebolavirus. Description: Binding affinity to EBOV-GP assessed as appearance of STD signals of aromatic region of compound at ligand to protein concentration molar ratio of 100:1 in presence of imipramine by STD-NMR analysis.
Series [9] concerns Ebolavirus. Kind of series: Inhibition of cleaved EBOV-GP assessed as disruption of interaction between EBOV-GPcl and Flag-tagged human NPC1 domain C at 50 uM by ELISA. On the technique in general: ELISA stands for enzyme-linked immunosorbent assay.

Calls of active or inactive are those of the source. The rule behind the calls is not given here.

As to `O=C(CN1CCCC1)NNc1ccccc1Sc1cc(Cl)ccc1[N+](=O)[O-]`, the concentration for a half-maximal effect (EC50) with Ebolavirus [1] was 2.9 µM.
On to `O=C(CCN1CCCC1)Nc1ccccc1Nc1cc(Cl)ccc1[N+](=O)[O-]`, for which the outcome in [2] was inactive.
Take `O=C(CCNCCc1ccccc1)Nc1ccccc1Sc1cc(Cl)ccc1[N+](=O)[O-]`: the half-maximal cytotoxic concentration (CC50) at 24 h in series [3] was 250 µM.
For `CCN(CC)CC(=O)Nc1ccccc1Sc1cc(Cl)ccc1[N+](=O)[O-]`, in series [3], the half-maximal cytotoxic concentration (CC50) at 24 h came out at 250 µM.
Turning to `O=C(CN1CCCCC1)Nc1ccccc1Sc1cc(Cl)ccc1[N+](=O)[O-]`, the cytotoxic concentration (CC50) at 24 h in series [3] amounted to 250 µM.
The same measure, in the same setting: under `O=C(CNCc1ccccc1)Nc1ccccc1Sc1cc(Cl)ccc1[N+](=O)[O-]` stands 250 µM.
In the case of `O=C(CNCCC1CCN(Cc2ccccc2)CC1)Nc1ccccc1Sc1cc(Cl)ccc1[N+](=O)[O-]`, the result in series [2] was inactive.
`CCN(CC)CCC(=O)Nc1ccccc1Sc1cc(Cl)ccc1[N+](=O)[O-]`: in [2], the result was inactive.
`O=C(CN1CCCC1)Nc1ccccc1Sc1cc(Cl)ccc1[N+](=O)[O-]`: in [3], the CC50 at 24 h turned out to be 250 µM. Moreover, the EC50 result in the series with Ebolavirus [4] is listed as “Not_active”.
`CCN(CC)CCC(=O)Nc1ccccc1Nc1cc(Cl)ccc1[N+](=O)[O-]`: the outcome in series [2] was inactive.
In the case of `O=C(CNCCC1CCN(Cc2ccccc2)CC1)Nc1ccccc1Nc1cc(Cl)ccc1[N+](=O)[O-]`, the selectivity ratio in series [5] was found to be 4.1; in series [6], 2.3. For the same compound, the result (in series [2]; in the series on Ebolavirus [8]) was inactive. In addition, the result in the series with Ebolavirus [7] was Active. In addition, in the series with Ebolavirus [9], the inhibition result was “Active”.
Regarding `NC(=O)c1nc(F)c[nH]c1=O`, in [3], the CC50 at 24 h is more than 1000 µM. For the same compound, the selectivity ratio in [6] worked out at 14.9.
As to `CCN(CC)CC(=O)NNc1ccccc1Sc1cc(Cl)ccc1[N+](=O)[O-]`, in the series on Ebolavirus [1], the EC50 is 4.02 µM.
With `O=C(CCN1CCCC1)Nc1ccccc1Sc1cc(Cl)ccc1[N+](=O)[O-]`, the result in series [2] was inactive. Also, in the series on Ebolavirus [4], the 50% effective concentration (EC50) result is reported as “Not_active”.

Broadly, the EC50 is the concentration needed to bring the measured effect to its halfway point. Broadly, the CC50 is the concentration that lowers cell viability or growth by half.

(Values after ChEMBL document CHEMBL6182911, “From Diarylsulfides to Diarylamines: New Ebola Virus Entry Inhibitors with Improved Metabolic Stability” (J Med Chem, 2025).)
